Columns and labels:
[1] = tested on: Smad1/5/8 signaling pathway; assay: Growth factor receptor activation: quantification of western blots of phospho-Smad1/5/8; type: cell-based; details: human osteosarcoma cells MG63; 400 ng/mL GFR-binding compound; Table 4
Protocol: After 24 hours of culture, cells were permeabilized (10% SDS, 25 mM NaCl, 10 nM pepstatin and 10 nM leupeptin in distilled water and loading buffer), boiled for 10 minutes and resolved by reducing PAGE (Invitrogen). Proteins were transferred onto nitrocellulose, blocked, and labeled with HRP-conjugated antibodies (Invitrogen). Integrin αv, α5, α3, α4, β1, β, β5 and […] were blotted by treating the nitrocellulose with monoclonal anti-integrin (extracellular domain) αv, α5, α3, α4, β1, β3, β5 and β6 antibodies (Santa Cruz Biotechnology). Phosphor-Smad1/5/8 was blotted by treating the nitrocellulose with monoclonal anti-p-Smad1/5/8 (Santa Cruz Biotechnology). For all of the experiments the western blot was performed in triplicate, along with an additional blot for actin and coomassie blue staining to ensure constant protein load among samples.

[2] = tested on: human osteosarcoma cells, MG63; assay: Tumor cell recoding via quantification of pRB (immunofluorescence, ImageJ); type: cell-based
Protocol: The cells were first fixed for 20 min with 4% paraformaldehyde/PBS at 4° C. After fixation, the cells were permeabilized in PBS containing 1% Triton X-100 for 15 min. Protein immunofluorescent visualization was performed by first treating the cells with 1% (v/v) specific monoclonal antibodies for 1 hour at 37° C. Then the samples were incubated with Alexa Fluor® 568 or 647 (F(ab′)2 fragment of IgG(H+L)) during 30 min at room temperature. The cell nuclei were counterstained in 20 ng/mL DAPI for 10 min at room temperature.
For this type of quantification the freeware image analysis ImageJ® software was used. The raw image was first converted to an 8-bit file, and then the unsharp mask feature was used (settings 1:0.2) to remove the image background (rolling ball radius 10). After smoothing, the resulting image, which appears similar to the original photomicrograph but with minimal background, was then converted to a binary image by setting a threshold. Threshold values were determined empirically by selecting a setting, which gave the most accurate binary image for a subset of randomly selected photomicrographs. The cell area was determined by manual delineation on raw fluorescent images. Total contact area and mean contact area per cell were calculated by “analyse particules” in ImageJ®. A minimum of 50 cells per condition were analyzed.
Neoplastic cells (in this example osteosarcoma cells) were cultured on pharmaceutical associations comprising PET as a bioactive carrier and one of GFR-binding compounds of SEQ ID NO: 11 to 14, 24 to 26 and 51 to 63. A rapid (24 hours) decrease of the tumor markers was observed (FIG. 7). The adhesion checkpoint then activates the tumor suppressor proteins p53 and pRB. […]

Sequence	p-Smad1/5/8 (%) [1]	pRB (%) ([2]; Table 4)	pRB (%) ([2]; Table 5)
APTKLEPLPMVYYEERRNVIEQLSNNMVVR (Non-cyclic GFR-binding peptide) [SEQ ID NO: 86]	34%	11%	11%
APTKLEPLTIVYYDDSSNVIEQLSNNMVVR (Non-cyclic GFR-binding peptide) [SEQ ID NO: 88]	32%	21%	21%
APTQLSAISTLYLEIVRKKPLKNYQEMEDH (Non-cyclic GFR-binding peptide) [SEQ ID NO: 78]	58%	20%	20%
APTQLSAISTLYLEIVRKKPLKNYQFLQHNK (Non-cyclic GFR-binding peptide) [SEQ ID NO: 77]	52%	14%	14%
ASASPSSVPQDLEPLTILYYVGRTPKVEQLSNMV (Non-cyclic GFR-binding peptide) [SEQ ID NO: 65]	38%	18%	18%
ASASPSSVPQDLEPLTILYYVGRTPKVEQLSNMVEDH (Non-cyclic GFR-binding peptide) [SEQ ID NO: 80]	34%	17%	17%
NDEGLECVPTEERPVQVRKIRIKPHQGQKKATVFLQHNK [SEQ ID NO: 64] (Non-cyclic GFR-binding peptide)	36%	14%	14%
NDEGLECVPTEERPVQVRKIRIKPHQGQKKATVFLQHNK [SEQ ID NO: 79] (Non-cyclic GFR-binding peptide)	27%	21%	21%
RNVQCRPTQLEPLPIVYYEIVRKKPEQLSNTLE (Non-cyclic GFR-binding peptide) [SEQ ID NO: 95]	29%	8%	8%
RNVQCRPTQLEPLPIVYYEIVRKKPEQLSNTLEDHLA [SEQ ID NO: 66] (Non-cyclic GFR-binding peptide)	38%	21%	21%
RNVQCRPTQLEPLPIVYYEIVRKKPEQLSNTLEDHLA [SEQ ID NO: 81] (Non-cyclic GFR-binding peptide)	41%	19%	19%
SRVHHNAISTLYFDESSNVILKKYRGMSVVE (Non-cyclic GFR-binding peptide) [SEQ ID NO: 91]	56%	9%	9%
TPTKMSPINMLYFNEKNNIIYGKIPGM (Non-cyclic GFR-binding peptide) [SEQ ID NO: 94]	41%	20%	20%
TPTKMSPINMLYFNEKNNIIYGKIPGMVVD (Non-cyclic GFR-binding peptide) [SEQ ID NO: 76]	55%	15%	15%
TQVQLEPLTLLYYDENEKVIEQLSNDMVVE (Non-cyclic GFR-binding peptide) [SEQ ID NO: 71]	47%	19%	19%
VPARLSPISILYIDAANNVVYKQYEDM (Non-cyclic GFR-binding peptide) [SEQ ID NO: 74]	51%	10%	10%
VPARLSPISILYIDAANNVVYKQYEDMVKS (Non-cyclic GFR-binding peptide) [SEQ ID NO: 93]	44%	8%	8%
VPARLSPISILYIDEMGVPTYKQYEEGMSVAE (Non-cyclic GFR-binding peptide) [SEQ ID NO: 83]	33%	9%	9%

Sequence	p-Smad1/5/8 (%) [1]	pRB (%) ([2]; Table 4)	pRB (%) ([2]; Table 5)
VPEKMSSLSILFFDENKNAALKVYPNMTVE (Non-cyclic GFR-binding peptide) [SEQ ID NO: 92]	52%	8%	8%
VPEKMSSLSILFFDENKNVVLKVYPNMAVS (Non-cyclic GFR-binding peptide) [SEQ ID NO: 73]	44%	17%	17%
VPQALNAISTLYFDDSSNVILKKYRNMAVS (Non-cyclic GFR-binding peptide) [SEQ ID NO: 72]	48%	11%	11%
VPQALSPINMLYFNEKNQIIYGKIPFLQHNK (Non-cyclic GFR-binding peptide) [SEQ ID NO: 75]	54%	8%	8%
VPQALSPISILFIRLKPHQGHLGEMSNMVVR (Non-cyclic GFR-binding peptide) [SEQ ID NO: 85]	26%	24%	24%
VPQALSPISILFIVGRKPKVYKQYEMIVERS (Non-cyclic GFR-binding peptide) [SEQ ID NO: 89]	41%	18%	18%
VPQALSPISILYIDDMGVPTYKQYEEGMSVAE (Non-cyclic GFR-binding peptide) [SEQ ID NO: 68]	39%	7%	7%
VPTEESNITTQIMRIKPHQGQHIGEMSFLQH [SEQ ID NO: 69] (Non-cyclic GFR-binding peptide)	32%	23%	23%
VPTEESNITTQIMRIKPHQGQHIGEMSFLQH [SEQ ID NO: 84] (Non-cyclic GFR-binding peptide)	22%	10%	10%
VPTELSPISILFIRIKPHQGHLGEMSAAVVE (Non-cyclic GFR-binding peptide) [SEQ ID NO: 70]	30%	24%	24%
VPTELSPISILFIVGGKPKVYKQYENMVVE (Non-cyclic GFR-binding peptide) [SEQ ID NO: 90]	36%	17%	17%
VPTHHSAISMLYLELGGDKPLENYQFLQ (Non-cyclic GFR-binding peptide) [SEQ ID NO: 97]	46%	9%	9%
VPTHHSAISTLYLELAGEKPLKNYQFLQHNK (Non-cyclic GFR-binding peptide) [SEQ ID NO: 96]	47%	7%	7%
VPTKLSAISTLYLDLAREEPLKNYQEMVVE (Non-cyclic GFR-binding peptide) [SEQ ID NO: 87]	38%	16%	16%
VPTKLSPISILYIDDMGVPTYKQYEEGMSVAE (Non-cyclic GFR-binding peptide) [SEQ ID NO: 67]	40%	9%	9%
VPTKLSPISILYIDKMGVPTYKQYEEGMSVAE (Non-cyclic GFR-binding peptide) [SEQ ID NO: 82]	35%	16%	16%
VSQDLSAISTLYLKIVRKEPLKNYQEMVEE (Non-cyclic GFR-binding peptide) [SEQ ID NO: 98]	39%	9%	9%
